Format in all cases: functional
For test [1], the target named is T1, Sodium- and chloride-dependent betaine transporter (Homo sapiens, UniProt P48065).
T1 sequence (P48065 whole entry): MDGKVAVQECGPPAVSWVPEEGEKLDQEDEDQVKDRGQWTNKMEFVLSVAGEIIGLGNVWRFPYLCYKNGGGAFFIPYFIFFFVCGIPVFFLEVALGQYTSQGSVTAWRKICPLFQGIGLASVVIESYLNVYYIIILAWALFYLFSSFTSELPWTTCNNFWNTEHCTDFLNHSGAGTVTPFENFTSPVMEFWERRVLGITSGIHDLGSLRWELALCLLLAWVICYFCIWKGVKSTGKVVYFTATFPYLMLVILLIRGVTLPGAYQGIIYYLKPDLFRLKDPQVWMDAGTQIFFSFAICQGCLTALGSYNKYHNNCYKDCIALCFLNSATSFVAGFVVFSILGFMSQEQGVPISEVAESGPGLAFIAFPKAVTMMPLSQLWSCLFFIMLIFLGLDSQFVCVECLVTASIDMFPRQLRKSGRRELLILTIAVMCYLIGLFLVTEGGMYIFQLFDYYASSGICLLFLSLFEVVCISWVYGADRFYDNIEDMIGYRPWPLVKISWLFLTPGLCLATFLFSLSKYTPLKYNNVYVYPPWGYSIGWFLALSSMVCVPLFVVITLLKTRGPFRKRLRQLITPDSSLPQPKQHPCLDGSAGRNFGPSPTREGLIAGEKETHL
In words: Compound was tested for its ability to inhibit uptake of [3H]- GABA by cloned human BGT-1 transporter.

Test [2] deals with T2, Sodium- and chloride-dependent GABA transporter 3 (Homo sapiens, UniProt P48066).
T2 sequence (P48066 whole entry): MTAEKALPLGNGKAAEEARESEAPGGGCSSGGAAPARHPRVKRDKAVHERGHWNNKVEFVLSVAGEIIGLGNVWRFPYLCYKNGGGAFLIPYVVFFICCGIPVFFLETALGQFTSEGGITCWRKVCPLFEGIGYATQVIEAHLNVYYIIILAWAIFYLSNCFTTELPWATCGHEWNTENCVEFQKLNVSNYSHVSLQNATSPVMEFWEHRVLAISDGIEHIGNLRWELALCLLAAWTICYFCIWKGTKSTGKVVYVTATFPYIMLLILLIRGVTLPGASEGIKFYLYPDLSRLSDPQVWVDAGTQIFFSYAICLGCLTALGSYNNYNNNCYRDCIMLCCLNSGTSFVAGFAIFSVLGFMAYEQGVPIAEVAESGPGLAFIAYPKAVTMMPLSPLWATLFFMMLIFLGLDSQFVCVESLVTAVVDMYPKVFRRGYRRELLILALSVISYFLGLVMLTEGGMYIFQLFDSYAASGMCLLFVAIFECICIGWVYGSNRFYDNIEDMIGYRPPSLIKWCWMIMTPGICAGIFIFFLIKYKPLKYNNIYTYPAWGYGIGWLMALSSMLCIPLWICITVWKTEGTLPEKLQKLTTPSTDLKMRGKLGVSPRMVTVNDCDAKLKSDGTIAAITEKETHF
In words: Compound was tested for its ability to inhibit uptake of [3H]- GABA by cloned human GAT-3 transporter.

Test [3] deals with Sodium- and chloride-dependent GABA transporter 1 (Homo sapiens, UniProt P30531). In words: Compound was tested for its ability to inhibit uptake of [3H]- GABA by cloned human GAT-1 transporter.
In test [4] the target is T3, Sodium- and chloride-dependent GABA transporter 2 (Rattus norvegicus, UniProt P31646).
T3 sequence (P31646 whole entry): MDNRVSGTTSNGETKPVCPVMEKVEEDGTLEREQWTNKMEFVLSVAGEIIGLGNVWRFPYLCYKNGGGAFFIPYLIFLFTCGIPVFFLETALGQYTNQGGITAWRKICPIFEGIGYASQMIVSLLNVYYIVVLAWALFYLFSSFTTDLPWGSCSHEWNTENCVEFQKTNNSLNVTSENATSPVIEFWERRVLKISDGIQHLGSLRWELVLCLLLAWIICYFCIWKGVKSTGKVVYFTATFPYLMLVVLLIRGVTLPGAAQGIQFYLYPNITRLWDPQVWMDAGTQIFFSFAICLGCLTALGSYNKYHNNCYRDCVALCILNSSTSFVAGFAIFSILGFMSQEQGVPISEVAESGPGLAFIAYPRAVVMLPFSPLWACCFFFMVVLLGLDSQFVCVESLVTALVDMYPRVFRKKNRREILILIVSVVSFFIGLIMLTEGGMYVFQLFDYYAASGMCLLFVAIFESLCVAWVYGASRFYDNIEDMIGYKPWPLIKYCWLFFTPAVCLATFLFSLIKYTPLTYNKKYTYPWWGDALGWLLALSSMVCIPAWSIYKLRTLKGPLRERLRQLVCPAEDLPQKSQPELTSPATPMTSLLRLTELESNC
In words: Compound was tested for its ability to inhibit uptake of [3H]- GABA by cloned rat GAT-2 transporte.

As a reminder, the IC50 is the concentration that inhibits the measured activity by half.

Sodium- and chloride-dependent GABA transporter 1, sequence (P30531 whole entry): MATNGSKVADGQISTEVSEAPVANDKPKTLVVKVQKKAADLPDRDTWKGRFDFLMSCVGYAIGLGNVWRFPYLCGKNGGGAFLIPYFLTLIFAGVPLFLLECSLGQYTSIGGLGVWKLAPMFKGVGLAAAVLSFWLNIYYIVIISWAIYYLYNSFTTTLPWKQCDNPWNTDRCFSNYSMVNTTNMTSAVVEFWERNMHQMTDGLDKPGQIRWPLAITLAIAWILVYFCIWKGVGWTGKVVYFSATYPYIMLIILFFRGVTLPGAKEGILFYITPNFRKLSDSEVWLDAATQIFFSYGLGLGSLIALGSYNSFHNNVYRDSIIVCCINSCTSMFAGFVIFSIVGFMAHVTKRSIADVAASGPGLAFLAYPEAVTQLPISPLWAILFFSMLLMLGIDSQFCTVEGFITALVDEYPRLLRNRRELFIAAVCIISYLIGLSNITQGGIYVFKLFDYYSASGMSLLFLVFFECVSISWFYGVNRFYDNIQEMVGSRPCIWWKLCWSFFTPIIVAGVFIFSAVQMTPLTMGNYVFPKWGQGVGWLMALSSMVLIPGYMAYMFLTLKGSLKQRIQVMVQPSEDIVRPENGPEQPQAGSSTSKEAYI

In the case of `O=C(O)[C@H]1CCC2CC(=C(c3ccccc3)c3ccccc3)CCN2C1` (stereo partly specified), the concentration for half-maximal inhibition (IC50) in test [1] stood at 335 µM; in test [2], 876 µM; in test [3], 809 µM; in test [4] it was 757 µM.

`O=C(O)[C@@H]1CCC2C[C@H](C(c3ccccc3)c3ccccc3)CCN2C1` (stereo partly specified): the IC50 in test [1] amounted to 2900 µM; in test [2], 2040 µM; in test [3] it was 632 µM; in test [4], 477 µM.

Consider `O=C(O)[C@H]1CCC2C[C@H](C(c3ccccc3)c3ccccc3)CCN2C1` (stereo partly specified), for which the IC50 is 809 µM in test [1], 782 µM in test [2], 270 µM in test [3] and 669 µM in test [4].

On to `O=C(O)[C@@H]1CCC2CC(=C(c3ccccc3)c3ccccc3)CCN2C1` (stereo partly specified), for which the 50% inhibitory concentration (IC50) in test [1] came out at 436 µM; in test [2], 3230 µM; in test [3] it was 270 µM; in test [4] it was 810 µM.

Values taken from ChEMBL document CHEMBL1129108, “On the bioactive conformation of the gaba uptake inhibitor SK&F 89976-A” (Bioorg Med Chem Lett, 1996).
